This is an account of results in patent US10766883B2, “Aminopyrazoles as janus kinase inhibitors” (Merck Sharp & Dohme Corp., priority 2016, dated 2020).

Assay [1] deals with IL-6R/JAK1/2/Stat3 pathway. Briefly: IL6 CellSensor beta-lactamase reporter assay (SIE-bla ME-180 cells). It is filed as cell-based. To be noted: Homo sapiens; SIE-bla ME-180 cells, IL6 at EC80; read-out: IL-6 IP. From the text:
(§1) Inhibition of the activity of JAK kinases (JAK1, JAK2, JAK3 and TYK2) in intact cells was quantified in antagonist mode using CellSensor® transcriptional reporter technology (Life Technologies/ThermoFisher Scientific Inc., Waltham, Mass., USA; https://www.thermofisher.com/us/en/home/industrial/pharma-biopharma drug-discovery-development/target-and-lead-identification-and-validation/pathway-biology/cellular-pathway-analysis/cellsensor-cell-lines.html), in three independent cell lines engineered to detect IL4, IL6 and EPO signaling. In brief, CellSensor® cell lines (see details below for each assay) carrying a stably integrated β-Lactamase reporter gene under control of specific cis-regulatory STAT elements responsive to the pathway being monitored were pre-treated with test compounds serially diluted in DMSO (see preparation and dosing of compounds and agonist cytokines section).
(§2) Incubation with compounds, cytokines and LiveBLAzer™ were carried out at 37° C. in a tissue culture incubator maintained at 90% humidity and 5% CO2.
Interleukin 6 (IL6)—JAK1/JAK2—STAT4 Pathway
CellSensor™ SIE-bla ME-180 cells carrying a stably integrated β-Lactamase reporter gene under control of the Sis-Inducible Element (SIE).
(§3) Each CellSensor® cell line was subsequently plated as per supplier's instructions (30,000 cells in 32 μL/well) and mixed with the compound. Following a 60 minute incubation, cells were subsequently stimulated by addition of 8 μL of cognate cytokine (EC80 dose of IL4, IL6 and EPO) and incubated for an additional 3 hours, before adding LiveBLAzer™-FRET B/G substrate.
(§4) The IL-6 assay identifies agents that inhibit the beta-lactamase reporter activity initiated through stimulation of the IL-6R/JAK1/2/Stat3 pathway with recombinant human IL-6. The EPO assay identifies agents that inhibit the beta-lactamase reporter activity initiated through stimulation of the EPO/Jak2/Stat5 pathway with human EPO. Inhibition of EPO signaling leads to an inability to recover from anemia of chronic disease. […] That is, it is desirable for the EPO/IL-6 IC50 ratios to be a relatively large number.

The next assay concerns the target JAK1 (Homo sapiens (Human), UniProt P23458). Briefly: JAK biochemical HTRF enzyme assay, JAK1. The procedure:
(§5) The ability of compounds to inhibit the activity of JAK1, JAK2, JAK3, and Tyk2 was measured using a recombinant purified GST-tagged catalytic domain for each enzyme (InVitrogen/Life Technologies/ThermoFisher Scientific Inc., Waltham, Mass., USA; catalogue numbers: M4290(JAK1), M4290(JAK2), M4290(JAK3), M4290(Tyk2)) in an HTRF format biochemical assay.
(§6) Subsequent reagent additions employed an Agilent™ Bravo™ liquid handling system (Aligent Technologies, Santa Clara, Calif., USA). […] After equilibration, 2 μL of 10×ATP in 1× assay buffer was added to initiate the kinase reaction and the plates were shaken and then incubated at ambient temperature for 120 minutes. […] After normalization to untreated controls, the percent inhibition of the HTRF signal at each compound concentration was calculated. The plot of percent inhibition versus the log of compound concentration was fit with a 4-parameter dose response equation to calculate IC50 values.
(In TR-FRET formats the signal depends on donor and acceptor labels being close together.)

A further assay has as its system EPO/Jak2/Stat5 pathway. Briefly: EPO CellSensor beta-lactamase reporter assay (irf1-bla TF-1 cells). The format is cell-based, human. To be noted: for IC50: Homo sapiens, irf1-bla TF-1 cells, EPO at EC80, read-out: EPO IP; for EPO/IL-6: ratio EPO IP / IL-6 IP.
From the text: as §1, §2
Erythropoietin (EPO)—JAK2—STAT5 Pathway
CellSensor irf1-bla TF-1 cells carry a stably integrated β-Lactamase reporter gene under control of the STAT5 Response Elements present in the Interferon Regulatory Factor I (IRF1) gene promoter.
as §3, §4

The target in the next assay is JAK2 (Homo sapiens (Human), UniProt O60674). Briefly: JAK biochemical HTRF enzyme assay, JAK2. Conditions: for IC50: HTRF, GST-tagged catalytic domain, ATP 8.5 μM; for JAK2/1: ratio JAK2 IC50 / JAK1 IC50. The procedure:
as §5, §6

The next assay has as its target Tyk2 (Homo sapiens (Human), UniProt P29597). Briefly: JAK biochemical HTRF enzyme assay, Tyk2. Conditions: reference compound, mean +/- spread across assay runs. The protocol:
(§7) The ability of compounds to inhibit the activity of JAK1, JAK2, JAK3, and Tyk2 was measured using a recombinant purified GST-tagged catalytic domain for each enzyme (InVitrogen/Life Technologies/ThermoFisher Scientific Inc., Waltham, Mass., USA; catalogue numbers: M4290(JAK1), M4290(JAK2), M4290(JAK3), M4290(Tyk2)) in an HTRF format biochemical assay. The reactions employed a common peptide substrate, LCB-[…]-NH2 (Merck Sharp & Dohme, Kenilworth, N.J., USA).
(§8) The basic assay protocol is as follows: First, 250 nL of diluted compounds in DMSO were dispensed into the wells of a dry 384-well Black plate (GreinerFluotrac™ catalog number: 781076; Greiner Bio-One GmbH, Frickenhausen, Germany) using a Labcyte Echo® 555 acoustic dispenser (Clarcyte, Inc, Sunnyvale, Calif., USA). Subsequent reagent additions employed an Agilent™ Bravo™ liquid handling system (Aligent Technologies, Santa Clara, Calif., USA). […] After equilibration, 2 μL of 10×ATP in 1× assay buffer was added to initiate the kinase reaction and the plates were shaken and then incubated at ambient temperature for 120 minutes. […] HTRF signal=10,000*665 nm reading/615 nm reading. After normalization to untreated controls, the percent inhibition of the HTRF signal at each compound concentration was calculated. […]

In assay [2] the test system is Interleukin 4 (IL4)—JAK1/JAK3—STAT6 Pathway. Briefly: IL4 CellSensor beta-lactamase reporter assay (STAT6-bla RA-1 cells). The format is cell-based. To be noted: reference compound, mean +/- spread across assay runs.
From the text: as §1, with “section). Following incubation with compounds, IL4, IL6, or EPO were added to each cognate cell line at a concentration equal to a dose necessary to achieve 80% of the maximal response (EC80).” for “section).”
as §2
Interleukin 4 (IL4)—JAK1/JAK3—STAT6 Pathway […]

Another assay concerns the target JAK3 (Homo sapiens (Human), UniProt P52333). Briefly: JAK biochemical HTRF enzyme assay, JAK3. To be noted: reference compound, mean +/- spread across assay runs. The procedure:
as §7, §8

[3] abbreviates: HTRF, GST-tagged catalytic domain, ATP 31.8 μM.

JAK2, sequence (O60674 849-1124): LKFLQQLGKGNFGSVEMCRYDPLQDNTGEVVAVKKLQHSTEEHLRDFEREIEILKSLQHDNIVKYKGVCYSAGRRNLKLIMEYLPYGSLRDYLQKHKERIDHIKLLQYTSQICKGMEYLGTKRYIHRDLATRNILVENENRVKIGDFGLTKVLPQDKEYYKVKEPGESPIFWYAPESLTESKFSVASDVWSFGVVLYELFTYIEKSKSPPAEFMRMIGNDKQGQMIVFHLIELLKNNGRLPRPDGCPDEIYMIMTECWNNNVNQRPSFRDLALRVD
JAK1, sequence (P23458 875-1153): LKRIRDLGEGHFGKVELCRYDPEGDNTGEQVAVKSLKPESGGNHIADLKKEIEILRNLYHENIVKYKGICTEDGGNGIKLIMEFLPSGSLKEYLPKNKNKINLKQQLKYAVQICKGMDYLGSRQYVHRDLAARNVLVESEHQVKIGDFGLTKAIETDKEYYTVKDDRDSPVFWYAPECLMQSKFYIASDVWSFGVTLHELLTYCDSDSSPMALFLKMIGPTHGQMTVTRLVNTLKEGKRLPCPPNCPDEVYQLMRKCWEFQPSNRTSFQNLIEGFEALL
Tyk2, sequence (P29597 897-1176): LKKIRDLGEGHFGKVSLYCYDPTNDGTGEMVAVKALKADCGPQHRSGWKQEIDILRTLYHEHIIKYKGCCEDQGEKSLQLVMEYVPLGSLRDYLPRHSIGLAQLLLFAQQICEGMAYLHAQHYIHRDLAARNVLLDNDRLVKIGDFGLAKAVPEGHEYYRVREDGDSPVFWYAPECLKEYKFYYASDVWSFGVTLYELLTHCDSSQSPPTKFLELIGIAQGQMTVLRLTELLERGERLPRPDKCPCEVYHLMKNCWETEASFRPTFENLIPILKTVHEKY
JAK3, sequence (P52333 822-1111): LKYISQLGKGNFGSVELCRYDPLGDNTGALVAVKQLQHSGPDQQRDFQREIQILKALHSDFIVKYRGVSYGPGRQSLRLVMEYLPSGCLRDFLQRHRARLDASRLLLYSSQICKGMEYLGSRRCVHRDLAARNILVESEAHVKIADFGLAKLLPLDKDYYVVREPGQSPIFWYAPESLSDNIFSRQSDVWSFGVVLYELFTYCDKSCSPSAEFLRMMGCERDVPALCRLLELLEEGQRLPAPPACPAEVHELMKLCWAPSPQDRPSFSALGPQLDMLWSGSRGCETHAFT

Consider `COc1cc(Nc2nn([C@H]3COCC[C@@H]3C#N)cc2C(N)=O)ccc1Cl` [Ex-1, 3-((4-Chloro-3-methoxyphenyl)amino)-1-((3R,4S)-4-cyanotetrahydro-2H-pyran-3-yl)-1H-pyrazole-4-carboxamide], for which the IC50 came out at 15 nM in assay [1], 0.12 nM against JAK1 (setting [3]), 280 nM in the assay with EPO/Jak2/Stat5 pathway and 3.88 nM on JAK2. In addition, the EPO/IL-6 with EPO/Jak2/Stat5 pathway turned out to be 19. Moreover, the JAK2/1 on JAK2 was 32.
In the case of `CSc1cc(Nc2nn([C@H]3COCC[C@@H]3C#N)cc2C(N)=O)ccc1Cl` [Ex-2, 3-((4-chloro-3-(methylthio)phenyl)amino)-1-((3R,4S)-4-cyanotetrahydro-2H-pyran-3-yl)-1H-pyrazole-4-carboxamide], the IC50 was 22 nM in assay [1], 0.25 nM against JAK1 (setting [3]), 649 nM with EPO/Jak2/Stat5 pathway and 5.48 nM against JAK2. The EPO/IL-6 in the assay with EPO/Jak2/Stat5 pathway is listed as 30. Besides, the JAK2/1 at JAK2 came to 22.
In the case of `Cc1noc2ccc(Nc3nn([C@H]4COCC[C@@H]4C#N)cc3C(N)=O)cc12` [Ex-5, 1-((3R,4S)-4-cyanotetrahydro-2H-pyran-3-yl)-3-((3-methylbenzo[d]isoxazol-5-yl)amino)-1H-pyrazole-4-carboxamide], the IC50 in assay [1] turned out to be 17 nM; against JAK1 (setting [3]), 0.16 nM; with EPO/Jak2/Stat5 pathway, 309 nM; on JAK2, 3.04 nM. The EPO/IL-6 in the assay on EPO/Jak2/Stat5 pathway is on record as 18. Besides, the JAK2/1 on JAK2 is listed as 19.
Turning to `CC(C)c1cc(Nc2nn([C@H]3COCC[C@@H]3C#N)cc2C(N)=O)ccc1C#N` [Ex-4, 3-((4-cyano-3-isopropylphenyl)amino)-1-((3R,4S)-4-cyanotetrahydro-2H-pyran-3-yl)-1H-pyrazole-4-carboxamide], the IC50 in assay [1] came to 47 nM; against JAK1 (setting [3]), 0.49 nM; with EPO/Jak2/Stat5 pathway it was 744 nM; against JAK2 it was 9.7 nM. For the same molecule, the EPO/IL-6 in the assay with EPO/Jak2/Stat5 pathway worked out at 16. In addition, the JAK2/1 at JAK2 is given as 20.
For the molecule `COc1cc(Nc2nn([C@H]3COCC[C@@H]3C#N)cc2C(N)=O)ccc1C#N` [Ex-3, 3-((4-cyano-3-methoxyphenyl)amino)-1-((3R,4S)-4-cyanotetrahydro-2H-pyran-3-yl)-1H-pyrazole-4-carboxamide], the IC50 in assay [1] is 19 nM; against JAK1 (setting [3]), 0.07 nM; in the assay with EPO/Jak2/Stat5 pathway, 431 nM; against JAK2 it was 3.28 nM. For the same molecule, the EPO/IL-6 with EPO/Jak2/Stat5 pathway is on record as 23. For the same molecule, at JAK2, the JAK2/1 was 49.
Consider `CN(C)[C@H]1CC[C@H](n2cc(C(N)=O)c(Nc3ccc(Cl)cc3)n2)[C@@H](C#N)C1` (single isomer, unassigned) [Reference Compound No. 1, 3-[(4-chlorophenyl)amino]-1-[(1S,2S,4S or 1R,2R,4R)-2-cyano-4-(dimethylamino)cyclohexyl]-1H-pyrazole-4-carboxamide], for which the IC50 against Tyk2 is 14 nM; at JAK1 (reference compound, mean +/- spread across assay runs) it was 1.47 nM; in assay [2], 25.7 nM; on JAK3, 1350 nM.
With `N#C[C@H]1CCOC[C@@H]1n1cc(C(N)=O)c(Nc2ccc(Cl)c(Cl)c2)n1` [Comp. Ex-2, reference compound], the IC50 in assay [1] is 69 nM. Also, in the assay on EPO/Jak2/Stat5 pathway, the IC50 turned out to be 2170 nM and the EPO/IL-6 turned out to be 31.
With `N#Cc1ccc(Nc2nn([C@H]3COCC[C@@H]3C#N)cc2C(N)=O)cc1` [Comp. Ex-4, reference compound], the IC50 in assay [1] came out at 14 nM. Further, in the assay on EPO/Jak2/Stat5 pathway, the IC50 worked out at 89 nM and the EPO/IL-6 amounted to 6.
In the case of `N#C[C@H]1CCOC[C@@H]1n1cc(C(N)=O)c(Nc2ccc(Cl)cc2)n1` [Comp. Ex-1, reference compound], in the assay with EPO/Jak2/Stat5 pathway, the IC50 came out at 132 nM and the EPO/IL-6 stood at 9.
Turning to `N#C[C@H]1CCOC[C@@H]1n1cc(C(N)=O)c(Nc2ccc(OC(F)(F)F)cc2)n1` [Comp. Ex-3, reference compound], the IC50 in assay [1] came out at 14 nM. Also, in the assay with EPO/Jak2/Stat5 pathway, the IC50 came to 80 nM and the EPO/IL-6 was found to be 6.
